Results on one compound are retold here after patent publication US9808470B2, “Estrogenic components for use in the treatment of neurological disorders” (UNIVERSITE DE LIEGE, priority 2012, dated 2017).

One test relates to CD11b-positive cells. Put plainly: Ex.6 IL-1β induced diffuse white matter injury mouse model: microglial phenotype gene expression (qRT-PCR). Type of test: in vivo. On the procedure:
Experimental protocols were approved by the institutional guidelines of the Institut National de la Santé et de la Recherche Scientifique (Inserm, France), and met the guidelines for the United States Public Health Service's Policy on Humane Care and Use of Laboratory Animals (NIH, Bethesda, Md., USA). Experiments were performed using OF1 strain mice purchased from Charles River (L'Arbresle, France) and born in our animal facility. Animals were housed under a 12 h light-dark cycle, had access to food and water ad libitum. Sex was determined at birth and confirmed at sacrifice. To avoid any potential variability linked to sex to differences. only male pups were used. Mice received twice a day from P1 to P4 and once on P5 a 5 μl intraperitoneal injection containing either PBS alone (sham group) or 10 μg/kg/dose recombinant mouse IL-1β in PBS. Vehicle group received only IL-1β injections while 10 μg E4 (5 mg/kg) or 20 μg E4 (10 mg/kg) was added to IL-1β once a day from P1 to P5 for E4 treated groups. Pups were sacrificed 3 hours after the first intraperitoneal injection at P1, 3 hours after last treatment at P5 or at P10 by intracardiac perfusion with NaCl 0.9% after anaesthesia by inhaled isoflurane.
At P1 and P5, brains were collected for cell dissociation and CD11b-positive (P1 and P5) and O4-positive (P5) cell enrichment using a magnetic coupled antibody extraction technique (MACS), as previously described and according to the manufacturer's protocol (Miltenyi Biotec, Bergisch Gladbach, Germany). The CD11b antigen is expressed on the surface of microglial cells while the O4 antigen is expressed on the cell surface of pre-OLs (Back et al., 2001). Briefly, after removing the cerebellum and olfactory bulbs, brains were pooled (n=3 at P1 and n=2 at P5) and dissociated using the neural tissue dissociation kit containing papain. From the resulting brain homogenate CD11b-positive cells (P1) and O4-positive then CD11b-positive cells (P5) were enriched by MACS, using the anti-CD11b or anti-O4 MicroBeads. After elution the isolated cells were centrifuged for 5 min at 600 g at 4° C. and conserved at −80° C.
Preparation of samples for quantitative reverse-transcriptase polymerase-chain reaction (qRT-PCR), primer design, and PCR protocol, were similar to that previously described (Favrais et al., 2011; Chhor et al., 2013). Briefly, RNA extraction was performed by with RNeasy mini kit according to the manufacturer's instructions (Qiagen, Courtaboeuf, France). RNA quality and concentration were assessed by spectrophotometry with the Nanodrop™ apparatus (Thermoscientific, Wilmington, Del., USA). Total RNA (0.5-1 μg) was subjected to reverse transcription using the iScript™ cDNA synthesis kit (Bio-Rad, Marnes-la-Coquette, France). qPCR was using SYBR Green Supermix (Bio-Rad). The relative expression of genes of interest (GOI) were expressed relative to expression of the reference gene, ribosomal protein L13a (Rpl13a) for CD11b+ cells and Glyceraldehyde 3-phosphate dehydrogenase (GAPDH) for O4+ cells and anterior brains based on reference gene suitability testing. Analyses were performed with the Biorad CFX manager 2.1 software. The relative quantities are expressed as the specific ratio between the gene of interest and Rpl13 or GAPDH. The data are presented as relative mRNA units with respect to control values (expressed as a fold-difference with respect to the mean of sham values).
In general terms: Real-time PCR tracks product formation cycle by cycle.

In test [1] the test system is intact cells in hippocampus and cortex. Put plainly: Ex.8 therapeutic HIE rat model: intact cell counting. Type of test: in vivo. On the procedure: To study the therapeutic effect of estetrol, newborn rat pups were assigned to one of the following 14 groups at postnatal day 7 (FIG. 23(B)): Sham group (n=12), Vehicle (n=15), 5 mg/kg/day E4 (n=11), 10 mg/kg/day E4 (n=11), 5 mg/kg/day E4+1.6 mg/kg/day PROG (n=11), 10 mg/kg/day E4+1.6 mg/kg/day PROG (n=11), 5 mg/kg/day E4+16 mg/kg/day PROG (n=11), 10 mg/kg/day E4+16 mg/kg/day PROG (n=13), 5 mg/kg/day E4+136 ng//kg/day E2 (n=11), 10 mg/kg/day E4+136 ng/kg/day E2 (n=11), 5 mg/kg/day E4+1.6 mg/kg/day PROG+136 ng/kg/day E2 (n=12), 10 mg/kg/day E4+1.6 mg/kg/day PROG+136 ng/kg/day E2 (n=11), 5 mg/kg/day E4+16 mg/kg/day PROG+136 ng/kg/day E2 (n=11), 10 mg/kg/day E4+16 mg/kg/day PROG+136 ng/kg/day (n=12) groups. […] After surgery, the pups were returned to their dams and allowed to recover for 1 hour. The pups were then placed in a humidified hypoxic in vivo cabinet (CoyLab). Hypoxia was produced by the inhalation of 11%-8% of oxygen balanced by nitrogen at decreased concentration of oxygen for 20 minutes, followed by inhalation of 8% oxygen and 92% nitrogen at constant concentration for 35 minutes. All the manipulations were performed at 37° C. Upon retrieval from the hypoxia chamber the rat pups were injected ip once either by vehicle (vehicle group) or by in accordance to the group assignment. The animals from the sham group went through similar procedures but proceeded neither left common carotid artery ligation and cut followed by hypoxia nor injections. Rat pups recovered with their dams until being sacrificed at postnatal day 14 (FIG. 24(B)). […]
Intact cell counting was performed on hematoxylin-eosin-stained sections of the rat pups brains at magnification 400× in 3 fields of the respective brain area. […] The sections were analyzed with the aid of a microscope (Olympus BX51, Olympus, Tokyo, Japan), an image scanner (DotSlide Digital Virtual Microscopy, Olympus, Germany) and ImageJ software (NIH, US). […]

The test system of test [2] is cytosolic estrogen receptors. The conditions noted are these: competitive receptor binding, relative to E2; cited from earlier work.
The next test has as its system MCF-7 cells. Particulars: compared to E2; cited from earlier work.
The mark [3] stands for this setting: IL-1β P1 to P5 + E4 10 mg/kg, P5.
Setting [4] is: IL-1β+E4 5 mg/kg ip, P1, 3 h post-treatment, vs IL-1β group.
Setting [5] is: IL-1β+E4 5 and 10 mg/kg ip, P1, vs IL-1β group.

`C[C@]12CC[C@@H]3c4ccc(O)cc4CC[C@H]3[C@@H]1[C@@H](O)[C@@H](O)[C@@H]2O` [E4, 1,3,5(10)-estratrien-3,15α,16α,17β-tetrol]: the “over-expression of IL1Rn (M2b)” value in the test on CD11b-positive cells (IL-1β P1 to P5 + E4 5 mg/kg, P5) was “significantly limited”. Besides, in the test with CD11b-positive cells (setting [3]), the “inflammation induced over-expression of IL1Rn (M2b)” value is “prevented”, the “inflammation induced over-expression of IL4Ra (M2b)” value is recorded as “prevented” and the “inflammation induced over-expression of iNOS (M1)” value is on record as “prevented”. Further, in the test with CD11b-positive cells (setting [4]), the “expression of CD32 mRNA (M1)” value was “significantly down-regulated” and the “expression of CD86 mRNA (M1)” value is “significantly down-regulated”. Moreover, the “expression of genes associated with the M2a repair/regeneration phenotype” value in the test on CD11b-positive cells (IL-1β+E4 10 mg/kg ip, P1) was “non-significant trend to the up-regulation”. In addition, in the test with CD11b-positive cells (IL-1β+E4 10 mg/kg ip, P1, vs IL-1β group), the “expression of Ptgs2 mRNA (M1)” value is given as “significantly decreased”. For the same compound, in the test with CD11b-positive cells (setting [5]), the “expression of IL1RN (M2b)” value is reported as “decreased”, the “expression of Sphk1 (M2b)” value is reported as “decreased” and the “iNOS mRNA (M1)” value is recorded as “significantly decreased”. Moreover, the “number of intact cells” value in test [1] (10 mg/kg/day E4, CA1) is on record as 57.30±5.19. The “intact cell counting per visual field” value in test [1] (10 mg/kg/day E4, DG) came out at 150.20±9.43. For the same compound, in test [1] (10 mg/kg/day E4, cortex), the “number of intact cells” value amounted to 46.60±1.83. Moreover, the “values for cytosolic estrogen receptor binding” value in test [2] was 0.015. In the test with MCF-7 cells, the “estrogenic activity in growth promotion of MCF-7 cells” value was “weak estrogen”.
